The values that follow come from ChEMBL document CHEMBL1201862, “PubChem BioAssay data set” (2004).

Structures are written as SMILES.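 Results reflect a 48-hour exposure of cells in 96-well plates to compound at five concentrations. GI50 = concentration required for 50% inhibition of growth.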 Activity calls are given as the source filed them. Rule as the data show it: active = GI50 up to about 1.1 µM and inactive = higher.

Among the test systems are A498; CCRF-CEM; COLO 205; HCT-15; HOP-92; HT-29; M14; NCI-H226; NCI-H522; OVCAR-5; RXF 393; SK-MEL-5; SNB-19; U-251; UACC-257; SK-MEL-28.
Experiment in all cases: NCI anticancer screen, dose series, 48 h

`CCOC(=O)NN1C(=O)C(=P(c2ccccc2)(c2ccccc2)c2ccccc2)C(C(=O)OCC)=C1C`: the GI50 with A498 is > 100 µM (inactive); in the experiment with CCRF-CEM it was > 100 µM (inactive); with COLO 205, > 100 µM (inactive); in the experiment on HCT-15 it was greater than 100 µM; with HOP-92, > 100 µM (inactive); in the experiment on HT-29, > 100 µM (inactive). Also, the GI50 in the experiment with M14, in the experiment on NCI-H226, with NCI-H522, in the experiment on OVCAR-5, in the experiment on RXF 393 and in the experiment with SK-MEL-5 was > 100 µM (inactive) throughout. The GI50 in the experiment on SNB-19, in the experiment with U-251 and in the experiment with UACC-257 was > 100 µM (inactive) throughout.

Turning to `N=C(N)NS(=O)(=O)c1ccc(Nc2c3ccccc3nc3c(C(=O)N4CCN(CCO)CC4)cccc23)cc1`, the GI50 in the experiment with A498 is > 100 µM (inactive); in the experiment with CCRF-CEM, > 100 µM (inactive); in the experiment with COLO 205, > 100 µM (inactive); in the experiment with HCT-15 it was greater than 100 µM; in the experiment on HOP-92 it was > 100 µM (inactive); in the experiment with HT-29, > 100 µM (inactive). Moreover, the GI50 in the experiment on M14, with NCI-H226, in the experiment on NCI-H522, in the experiment with OVCAR-5, in the experiment on RXF 393 and with SK-MEL-28 was > 100 µM (inactive) in each case. The GI50 with SK-MEL-5, in the experiment on SNB-19, in the experiment on U-251 and in the experiment on UACC-257 was > 100 µM (inactive) each time.

For the molecule `Cc1cccc(C(C)C)c1NC(=O)CC1C(=O)Nc2ccccc2S1(=O)=O` (configuration not stated), the GI50 is 11.7 µM (inactive) with A498; 7.24 µM (inactive) with CCRF-CEM; 25.2 µM (inactive) in the experiment on COLO 205; 5.11 µM with HCT-15; 11.8 µM (inactive) in the experiment on HOP-92; 12.6 µM (inactive) in the experiment with HT-29. For the same molecule, the GI50 in the experiment with M14 is 15.5 µM (inactive); with NCI-H226, 18.7 µM (inactive); in the experiment on NCI-H522, 7.01 µM (inactive); in the experiment on OVCAR-5, 39.7 µM (inactive); with RXF 393, 10.2 µM (inactive); in the experiment with SK-MEL-28, 17.7 µM (inactive). In addition, the GI50 with SK-MEL-5 is 12.3 µM (inactive); in the experiment with SNB-19 it was 29.2 µM (inactive); with U-251, 24.2 µM (inactive); in the experiment on UACC-257, 23.6 µM (inactive).

Consider `O=C(Cc1ccccc1)C(c1ccccc1)S(=O)(=O)c1ccccc1` (configuration not stated), for which the GI50 in the experiment with A498 is > 100 µM (inactive); with CCRF-CEM, > 100 µM (inactive); with COLO 205, > 100 µM (inactive); in the experiment on HCT-15 it was 83.6 µM; with HOP-92, 81.5 µM (inactive); in the experiment on HT-29, > 100 µM (inactive). Besides, the GI50 in the experiment with M14 was > 100 µM (inactive); with NCI-H226, > 100 µM (inactive); with NCI-H522, 88.7 µM (inactive); in the experiment on OVCAR-5, > 100 µM (inactive); with RXF 393, 67 µM (inactive); in the experiment with SK-MEL-28, > 100 µM (inactive). For the same molecule, the GI50 in the experiment with SK-MEL-5, with SNB-19, with U-251 and with UACC-257 was > 100 µM (inactive) throughout.

Regarding `COC(=O)C1=C(O)C(O)=C(C(=O)OC)C1`, the GI50 is > 100 µM (inactive) in the experiment with A498; > 100 µM (inactive) with CCRF-CEM; > 100 µM (inactive) in the experiment on COLO 205; greater than 100 µM in the experiment with HCT-15; > 100 µM (inactive) in the experiment with HOP-92; > 100 µM (inactive) with HT-29. Besides, the GI50 with M14, in the experiment with NCI-H226, with NCI-H522, with OVCAR-5, in the experiment with RXF 393 and in the experiment with SK-MEL-28 was > 100 µM (inactive) each time. Besides, the GI50 in the experiment on SK-MEL-5, with SNB-19, in the experiment on U-251 and in the experiment with UACC-257 was > 100 µM (inactive) throughout.

With `O=C(CSc1c2ccccc2nc2ccccc12)Nc1ccccc1-c1ccccc1NC(=O)CSc1c2ccccc2nc2ccccc12`, the GI50 in the experiment on A498 was 23 µM (inactive); in the experiment with CCRF-CEM it was > 24.6 µM (inactive); with COLO 205, 30.1 µM (inactive); in the experiment on HCT-15, 20.2 µM; in the experiment on HOP-92 it was 30.8 µM (inactive); in the experiment with HT-29 it was 34.8 µM (inactive). Also, the GI50 in the experiment on M14 was 24.4 µM (inactive); in the experiment with NCI-H226, 29.2 µM (inactive); in the experiment with NCI-H522, 9.42 µM (inactive); in the experiment on OVCAR-5 it was 56.6 µM (inactive); in the experiment with RXF 393, 21.5 µM (inactive); in the experiment with SK-MEL-28, 20.8 µM (inactive). Besides, the GI50 was 12.8 µM (inactive) in the experiment on SK-MEL-5, 22.4 µM (inactive) in the experiment on SNB-19, 26.7 µM (inactive) in the experiment with U-251 and 22 µM (inactive) in the experiment with UACC-257.

On to `Fc1cccc(C2SCc3nc4ccccc4n32)c1F` (configuration not stated), for which the GI50 was 42.2 µM (inactive) with A498; 42 µM (inactive) in the experiment with CCRF-CEM; 80.5 µM (inactive) in the experiment with COLO 205; 59.3 µM in the experiment with HCT-15; 23 µM (inactive) in the experiment with HOP-92; 79.4 µM (inactive) with HT-29. Besides, the GI50 with M14 was 62.4 µM (inactive); in the experiment with NCI-H226, 41.6 µM (inactive); in the experiment on NCI-H522, 37.2 µM (inactive); in the experiment with OVCAR-5, > 100 µM (inactive); in the experiment with RXF 393 it was 54.2 µM (inactive); in the experiment with SK-MEL-5 it was 21.6 µM (inactive). The GI50 in the experiment with SNB-19 is > 100 µM (inactive); in the experiment on U-251, 82.8 µM (inactive); in the experiment on UACC-257, 32.7 µM (inactive).

For `O=C(Cc1ccccc1)Oc1ccc2c(-c3ccccc3)c(C(=O)Nc3ccc(Cl)cc3)c(=O)oc2c1`, the GI50 in the experiment with A498 is > 100 µM (inactive); in the experiment on CCRF-CEM, > 100 µM (inactive); in the experiment on COLO 205, > 100 µM (inactive); in the experiment with HCT-15, greater than 100 µM; in the experiment on HOP-92 it was > 100 µM (inactive); with HT-29, > 100 µM (inactive). For the same molecule, the GI50 in the experiment with M14, in the experiment with NCI-H226, with NCI-H522, with OVCAR-5, with RXF 393 and in the experiment on SK-MEL-28 was > 100 µM (inactive) each time. The GI50 with SK-MEL-5, in the experiment with SNB-19, in the experiment on U-251 and with UACC-257 was > 100 µM (inactive) in each case.

Consider `Cc1cccc2c(=O)c([Se]c3coc4c(C)cccc4c3=O)coc12`, for which the GI50 was 24.6 µM (inactive) in the experiment with A498; 31.4 µM (inactive) in the experiment on CCRF-CEM; > 10 µM (inactive) with COLO 205; 19.4 µM in the experiment on HCT-15; 20.8 µM (inactive) in the experiment on HOP-92; 25.6 µM (inactive) in the experiment on HT-29. Also, the GI50 in the experiment with M14 was 16.4 µM (inactive); in the experiment on NCI-H226, 16.9 µM (inactive); in the experiment on NCI-H522, 31.3 µM (inactive); in the experiment with OVCAR-5 it was 18.9 µM (inactive); in the experiment with RXF 393, 17.8 µM (inactive); in the experiment with SK-MEL-28 it was 16.7 µM (inactive). For the same molecule, the GI50 is 18.2 µM (inactive) in the experiment with SK-MEL-5, 19.4 µM (inactive) with SNB-19, 11.2 µM (inactive) with U-251 and 18.2 µM (inactive) in the experiment with UACC-257.
